This data set is described as follows: Spectroscopic measurements (absorption, emission, quantum yield, extinction coefficient). It counts as physicochemical.
Where [1] appears, read: BDNCA library, difference emission minus absorption.
[2] abbreviates: BDNCA library, extinction coefficient; in M-1 cm-1 (unit assumed).
The mark [3] stands for this setting: BDNCA library, fluorescence emission.
The mark [4] stands for this setting: absorption maximum, BDNCA library.
Where [5] appears, read: difference of emission and absorption maxima.
[6] abbreviates: extinction coefficient, BDNCA library; in M-1 cm-1 (unit assumed).
Where [7] appears, read: fluorescence emission maximum, BDNCA library.

With `CC1=CC(/C=C/c2csc3ccccc23)=[N+]2C1=C(c1ccc(NC(=O)CCl)cc1)c1cccn1[B-]2(F)F` [BDNCA-37], where the note is “BDNCA library”, the “Qunt. Yield” value stood at 0.14. Where the note is “BDNCA library, absorption”, the Abs was 567 nm. Under setting [1], the Flu-Abs is given as 33. Further, the ε under setting [2] is on record as 71,121. Also, under setting [3], the Flu turned out to be 600.
As for `COC(=O)c1ccc(-c2ccc(/C=C/C3=[N+]4C(=C(c5ccc(NC(=O)CCl)cc5)c5cccn5[B-]4(F)F)C(C)=C3)cc2)cc1` [BDNCA-179], the “Qunt. Yield” value (BDNCA library) was 0.14. The same compound showed an Abs (BDNCA library, absorption) of 566 nm. The compound also came in with a Flu-Abs under setting [1] of 23. The ε under setting [2] was 52,998. The Flu under setting [3] is recorded as 589.
For `COc1ccc(/C=C/c2cc(C)c3n2[B-](F)(F)[N+]2=CC=CC2=C3c2ccc(NC(=O)CCl)cc2)c2ccccc12` [BDNCA-32], in that order: 0.06, 583 nm, 66, 27,735 and 649.
Consider `Cc1ccc(/C=C/c2cc(C)c3n2[B-](F)(F)[N+]2=CC=CC2=C3c2ccc(NC(=O)CCl)cc2)s1` [BDNCA-236], for which the “Qunt. Yield” value (BDNCA library) is on record as 0.11. In addition, the Abs (BDNCA library, absorption) turned out to be 577 nm. For the same compound, the Flu-Abs under setting [1] worked out at 31. Also, under setting [2], the ε was 72,220. For the same compound, under setting [3], the Flu worked out at 608.
On the same counts, the results for `CC1=CC(/C=C/c2ccc(I)cc2)=[N+]2C1=C(c1ccc(NC(=O)CCl)cc1)c1cccn1[B-]2(F)F` [BDNCA-237] are 0.13, 560 nm, 19, 70,572 and 579.
On the same counts, the results for `CC1=CC(/C=C/c2c(C)cc(C)cc2C)=[N+]2C1=C(c1ccc(NC(=O)CCl)cc1)c1cccn1[B-]2(F)F` [BDNCA-108] are 0.10, 549 nm, 33, 39,542 and 582.
On the same counts, the results for `CC1=CC(/C=C/c2ccc(C)c(Cl)c2)=[N+]2C1=C(c1ccc(NC(=O)CCl)cc1)c1cccn1[B-]2(F)F` [BDNCA-289] are 0.16, 560 nm, 26, 60,686 and 586.
Under setting [4], `COc1cccc(/C=C/C2=[N+]3C(=C(c4ccc(NC(=O)CCl)cc4)c4cccn4[B-]3(F)F)C(C)=C2)c1F` [BDNCA-314] registered an Abs of 554 nm. This compound also displayed a Flu-Abs under setting [5] of 21. In addition, under setting [6], the ε is given as 52,998. Under setting [7], this compound gave a Flu of 575. Also, the “Qunt. Yield” value (quantum yield, BDNCA library) was 0.11.
Turning to `CC1=CC(/C=C/c2ccc(Oc3cccc(Cl)c3)cc2)=[N+]2C1=C(c1ccc(NC(=O)CCl)cc1)c1cccn1[B-]2(F)F` [BDNCA-290], under “BDNCA library”, the “Qunt. Yield” value was determined as 0.14. Besides, the Abs (BDNCA library, absorption) was determined as 557 nm. This compound also returned a Flu-Abs under setting [1] of 20. In addition, under setting [2], the ε was 65,629. Under setting [3], this compound displayed a Flu of 577.
For `Cc1cc(/C=C/c2ccc(N(C)C)c3ccccc23)n2c1C(c1ccc(NC(=O)CCl)cc1)=C1C=CC=[N+]1[B-]2(F)F` [BDNCA-377], the Abs under setting [4] stood at 590 nm. For the same compound, the ε under setting [6] is recorded as 58,215. Further, the Flu entry under setting [7] is “weak”. For the same compound, the “Qunt. Yield” value (quantum yield, BDNCA library) is recorded as “weak”.
For `CCOc1cccc(/C=C/C2=[N+]3C(=C(c4ccc(NC(=O)CCl)cc4)c4cccn4[B-]3(F)F)C(C)=C2)c1O` [BDNCA-126], for the setting “BDNCA library”, the “Qunt. Yield” value is recorded as 0.01. Under “BDNCA library, absorption”, this compound registered an Abs of 563 nm. The Flu-Abs under setting [1] came out at 15. In addition, under setting [2], the ε is listed as 37,071. Moreover, the Flu under setting [3] worked out at 578.
With `CCOc1cccc(/C=C/C2=[N+]3C(=C(c4ccc(NC(=O)CCl)cc4)c4cccn4[B-]3(F)F)C(C)=C2)c1OCC` [BDNCA-317], under setting [4], the Abs worked out at 557 nm. Under setting [5], the Flu-Abs is 22. Further, under setting [6], the ε was 45,858. Besides, the Flu under setting [7] is given as 579. The “Qunt. Yield” value (quantum yield, BDNCA library) worked out at 0.08.
For `CC(=O)Oc1ccc(/C=C/c2cc(C)c3n2[B-](F)(F)[N+]2=CC=CC2=C3c2ccc(NC(=O)CCl)cc2)cc1` [BDNCA-41], in that order: 565 nm, 29, 47,780, 594 and 0.13.
For `CC1=CC(/C=C/c2ccc(Cl)c(F)c2)=[N+]2C1=C(c1ccc(NC(=O)CCl)cc1)c1cccn1[B-]2(F)F` [BDNCA-437], in that order: 556 nm, 19, 47,506, 575 and 0.09.
`CCOc1ccc(/C=C/C2=[N+]3C(=C(c4ccc(NC(=O)CCl)cc4)c4cccn4[B-]3(F)F)C(C)=C2)cc1` [BDNCA-429] returned an Abs under setting [4] of 566 nm. Besides, the Flu-Abs under setting [5] was 33. Besides, under setting [6], the ε is 64,531. For the same compound, the Flu under setting [7] worked out at 599. Also, the “Qunt. Yield” value (quantum yield, BDNCA library) came out at 0.14.
In the case of `CC1=CC(/C=C/c2cc3ccccc3o2)=[N+]2C1=C(c1ccc(NC(=O)CCl)cc1)c1cccn1[B-]2(F)F` [BDNCA-368], the Abs under setting [4] was found to be 578 nm. For the same compound, under setting [5], the Flu-Abs was 23. Moreover, the ε under setting [6] is 21,968. The same compound came in with a Flu under setting [7] of 601. Besides, the “Qunt. Yield” value (quantum yield, BDNCA library) is reported as 0.03.
Consider `COc1cc(/C=C/C2=[N+]3C(=C(c4ccc(NC(=O)CCl)cc4)c4cccn4[B-]3(F)F)C(C)=C2)cc(Br)c1OC` [BDNCA-259], for which, for the setting “BDNCA library”, the “Qunt. Yield” value worked out at 0.11. The compound also yielded an Abs (BDNCA library, absorption) of 561 nm. The Flu-Abs under setting [1] is on record as 21. For the same compound, under setting [2], the ε is given as 49,428. Under setting [3], this compound registered a Flu of 582.
For `COc1ccc(/C=C/c2cc(C)c3n2[B-](F)(F)[N+]2=CC=CC2=C3c2ccc(NC(=O)CCl)cc2)c(O)c1` [BDNCA-192], in that order: 0.03, 577 nm, 53, 21,693 and 630.
On to `COc1cccc(/C=C/C2=[N+]3C(=C(c4ccc(NC(=O)CCl)cc4)c4cccn4[B-]3(F)F)C(C)=C2)c1` [BDNCA-186], for which the “Qunt. Yield” value (BDNCA library) came out at 0.14. Also, the Abs (BDNCA library, absorption) was 556 nm. This compound displayed a Flu-Abs under setting [1] of 20. In addition, the ε under setting [2] was 61,510. The Flu under setting [3] is 576.
On the same counts, the results for `CC1=CC(/C=C/c2ccc(C)c3ccccc23)=[N+]2C1=C(c1ccc(NC(=O)CCl)cc1)c1cccn1[B-]2(F)F` [BDNCA-36] are 0.08, 572 nm, 38, 30,755 and 610.
As to `COc1cccc(/C=C/C2=[N+]3C(=C(c4ccc(NC(=O)CCl)cc4)c4cccn4[B-]3(F)F)C(C)=C2)c1OC` [BDNCA-83], the “Qunt. Yield” value (BDNCA library) stood at 0.12. The compound further gave an Abs (BDNCA library, absorption) of 557 nm. This compound also yielded a Flu-Abs under setting [1] of 20. Also, under setting [2], the ε is reported as 40,366. Under setting [3], this compound showed a Flu of 577.
Take `Cc1cc(/C=C/c2ccccc2OCC(=O)O)n2c1C(c1ccc(NC(=O)CCl)cc1)=C1C=CC=[N+]1[B-]2(F)F` [BDNCA-128]: the “Qunt. Yield” value (BDNCA library) is 0.02. This compound registered an Abs (BDNCA library, absorption) of 559 nm. Further, the Flu-Abs under setting [1] is 25. Also, the ε under setting [2] is 14,554. The compound further returned a Flu under setting [3] of 584.
Take `CC1=CC(/C=C/c2ccc(O)c([N+](=O)[O-])c2)=[N+]2C1=C(c1ccc(NC(=O)CCl)cc1)c1cccn1[B-]2(F)F` [BDNCA-131]: the “Qunt. Yield” value (BDNCA library) is recorded as “weak”. The Abs (BDNCA library, absorption) turned out to be 643 nm. Besides, under setting [2], the ε is 18,124. Further, under setting [3], the Flu result is given as “weak”.
Under setting [4], `CC1=CC(/C=C/c2ccc(Oc3ccc(F)cc3)cc2)=[N+]2C1=C(c1ccc(NC(=O)CCl)cc1)c1cccn1[B-]2(F)F` [BDNCA-322] displayed an Abs of 561 nm. This compound also came in with a Flu-Abs under setting [5] of 27. Moreover, under setting [6], the ε is 67,826. Under setting [7], this compound showed a Flu of 588. The “Qunt. Yield” value (quantum yield, BDNCA library) worked out at 0.14.
Take `CC1=CC(/C=C/c2cccc3c2OCO3)=[N+]2C1=C(c1ccc(NC(=O)CCl)cc1)c1cccn1[B-]2(F)F` [BDNCA-231]: the “Qunt. Yield” value (BDNCA library) stood at 0.04. This compound also displayed an Abs (BDNCA library, absorption) of 559 nm. The same compound came in with a Flu-Abs under setting [1] of 19. For the same compound, the ε under setting [2] is 33,227. In addition, the Flu under setting [3] amounted to 578.
On to `COc1ccc(/C=C/c2cc(C)c3n2[B-](F)(F)[N+]2=CC=CC2=C3c2ccc(NC(=O)CCl)cc2)c(OC)c1` [BDNCA-206], for which the “Qunt. Yield” value (BDNCA library) is 0.13. Where the note is “BDNCA library, absorption”, this compound yielded an Abs of 574 nm. The Flu-Abs under setting [1] is recorded as 44. Also, the ε under setting [2] is reported as 44,485. Under setting [3], this compound displayed a Flu of 618.
`CC1=CC(/C=C/c2ccc(OCCCN(C)C)cc2)=[N+]2C1=C(c1ccc(NC(=O)CCl)cc1)c1cccn1[B-]2(F)F` [BDNCA-163]: the “Qunt. Yield” value (BDNCA library) turned out to be 0.04. Under “BDNCA library, absorption”, this compound displayed an Abs of 566 nm. Under setting [1], this compound displayed a Flu-Abs of 29. Besides, under setting [2], the ε is recorded as 24,165. Moreover, the Flu under setting [3] was determined as 595.
`Cc1cc(/C=C/c2ccc(F)c(Oc3ccccc3)c2)n2c1C(c1ccc(NC(=O)CCl)cc1)=C1C=CC=[N+]1[B-]2(F)F` [BDNCA-311]: the Abs under setting [4] turned out to be 555 nm. Under setting [5], this compound came in with a Flu-Abs of 20. Further, under setting [6], the ε is 57,117. The compound further yielded a Flu under setting [7] of 575. Besides, under “quantum yield, BDNCA library”, the “Qunt. Yield” value is 0.09.
Compound `CC1=CC(/C=C/c2cccc([N+](=O)[O-])c2O)=[N+]2C1=C(c1ccc(NC(=O)CCl)cc1)c1cccn1[B-]2(F)F` [BDNCA-315] returned an Abs under setting [4] of 655 nm. Further, under setting [6], the ε is 15,652. Also, under setting [7], the Flu result was “weak”. The “Qunt. Yield” value (quantum yield, BDNCA library) is “weak”.
For `COc1cc(/C=C/c2cc(C)c3n2[B-](F)(F)[N+]2=CC=CC2=C3c2ccc(NC(=O)CCl)cc2)ccc1OCCN1CCCC1` [BDNCA-458], under setting [4], the Abs was 569 nm. Further, the Flu-Abs under setting [5] is given as 39. Moreover, under setting [6], the ε is listed as 25,538. The Flu under setting [7] is listed as 608. For the same compound, the “Qunt. Yield” value (quantum yield, BDNCA library) is on record as 0.06.

These data come from patent US9423396B2, “Bodipy structure fluorescence probes for diverse biological applications” (National University of Singapore, priority 2011, dated 2016).
